Test results from US10696655B2, “Therapeutic compounds and uses thereof” (GENENTECH, INC., priority 2017, dated 2020).

Columns and labels:
CBP = CBP (Homo sapiens (Human), UniProt Q92793); assay: CBP TR-FRET binding assay; settings: His/Flag tagged CBP 4 nM, biotin-ligand 60 nM; read-out: CBP HTRF IC50;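 also: displacement of a biotinylated small-molecule ligand from purified recombinant CBP read by TR-FRET, DMSO-only wells as control, IC50 from nonlinear curve fit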
Procedure: IC50 Measurements for Inhibitors Using CBP TR FRET Binding Assay
His/Flag epitope tagged CBP was cloned, expressed, and purified to homogeneity. CBP binding and inhibition was assessed by monitoring the engagement of a biotinylated small molecule compound with the target using the TR-FRET assay technology (Perkin-Elmer). Specifically, in a 384 well ProxiPlate CBP (4 nM final) was combined with biotin-ligand (60 nM final) in 50 mM HEPES (pH 7.5), 50 mM NaCl, 1 mM TCEP, 0.01% (w/v) BSA, and 0.008% (w/v) Brij-35 either in the presence of DMSO (final 0.2% DMSO) or compound dilution series in DMSO. […] After twenty minutes of equilibration, the plates were read on an Envision instrument and IC50S calculated using a four parameter non-linear curve fit.

MYC = MYC RPL19 QuantiGene assay in MV-4-11 cells; format: cell-based; settings: Homo sapiens, MV4-11, compound 4 hours
From the text: MYC RPL19 QuantiGene assay in MV-4-11 Cells

Sequence of CBP (Q92793 whole entry): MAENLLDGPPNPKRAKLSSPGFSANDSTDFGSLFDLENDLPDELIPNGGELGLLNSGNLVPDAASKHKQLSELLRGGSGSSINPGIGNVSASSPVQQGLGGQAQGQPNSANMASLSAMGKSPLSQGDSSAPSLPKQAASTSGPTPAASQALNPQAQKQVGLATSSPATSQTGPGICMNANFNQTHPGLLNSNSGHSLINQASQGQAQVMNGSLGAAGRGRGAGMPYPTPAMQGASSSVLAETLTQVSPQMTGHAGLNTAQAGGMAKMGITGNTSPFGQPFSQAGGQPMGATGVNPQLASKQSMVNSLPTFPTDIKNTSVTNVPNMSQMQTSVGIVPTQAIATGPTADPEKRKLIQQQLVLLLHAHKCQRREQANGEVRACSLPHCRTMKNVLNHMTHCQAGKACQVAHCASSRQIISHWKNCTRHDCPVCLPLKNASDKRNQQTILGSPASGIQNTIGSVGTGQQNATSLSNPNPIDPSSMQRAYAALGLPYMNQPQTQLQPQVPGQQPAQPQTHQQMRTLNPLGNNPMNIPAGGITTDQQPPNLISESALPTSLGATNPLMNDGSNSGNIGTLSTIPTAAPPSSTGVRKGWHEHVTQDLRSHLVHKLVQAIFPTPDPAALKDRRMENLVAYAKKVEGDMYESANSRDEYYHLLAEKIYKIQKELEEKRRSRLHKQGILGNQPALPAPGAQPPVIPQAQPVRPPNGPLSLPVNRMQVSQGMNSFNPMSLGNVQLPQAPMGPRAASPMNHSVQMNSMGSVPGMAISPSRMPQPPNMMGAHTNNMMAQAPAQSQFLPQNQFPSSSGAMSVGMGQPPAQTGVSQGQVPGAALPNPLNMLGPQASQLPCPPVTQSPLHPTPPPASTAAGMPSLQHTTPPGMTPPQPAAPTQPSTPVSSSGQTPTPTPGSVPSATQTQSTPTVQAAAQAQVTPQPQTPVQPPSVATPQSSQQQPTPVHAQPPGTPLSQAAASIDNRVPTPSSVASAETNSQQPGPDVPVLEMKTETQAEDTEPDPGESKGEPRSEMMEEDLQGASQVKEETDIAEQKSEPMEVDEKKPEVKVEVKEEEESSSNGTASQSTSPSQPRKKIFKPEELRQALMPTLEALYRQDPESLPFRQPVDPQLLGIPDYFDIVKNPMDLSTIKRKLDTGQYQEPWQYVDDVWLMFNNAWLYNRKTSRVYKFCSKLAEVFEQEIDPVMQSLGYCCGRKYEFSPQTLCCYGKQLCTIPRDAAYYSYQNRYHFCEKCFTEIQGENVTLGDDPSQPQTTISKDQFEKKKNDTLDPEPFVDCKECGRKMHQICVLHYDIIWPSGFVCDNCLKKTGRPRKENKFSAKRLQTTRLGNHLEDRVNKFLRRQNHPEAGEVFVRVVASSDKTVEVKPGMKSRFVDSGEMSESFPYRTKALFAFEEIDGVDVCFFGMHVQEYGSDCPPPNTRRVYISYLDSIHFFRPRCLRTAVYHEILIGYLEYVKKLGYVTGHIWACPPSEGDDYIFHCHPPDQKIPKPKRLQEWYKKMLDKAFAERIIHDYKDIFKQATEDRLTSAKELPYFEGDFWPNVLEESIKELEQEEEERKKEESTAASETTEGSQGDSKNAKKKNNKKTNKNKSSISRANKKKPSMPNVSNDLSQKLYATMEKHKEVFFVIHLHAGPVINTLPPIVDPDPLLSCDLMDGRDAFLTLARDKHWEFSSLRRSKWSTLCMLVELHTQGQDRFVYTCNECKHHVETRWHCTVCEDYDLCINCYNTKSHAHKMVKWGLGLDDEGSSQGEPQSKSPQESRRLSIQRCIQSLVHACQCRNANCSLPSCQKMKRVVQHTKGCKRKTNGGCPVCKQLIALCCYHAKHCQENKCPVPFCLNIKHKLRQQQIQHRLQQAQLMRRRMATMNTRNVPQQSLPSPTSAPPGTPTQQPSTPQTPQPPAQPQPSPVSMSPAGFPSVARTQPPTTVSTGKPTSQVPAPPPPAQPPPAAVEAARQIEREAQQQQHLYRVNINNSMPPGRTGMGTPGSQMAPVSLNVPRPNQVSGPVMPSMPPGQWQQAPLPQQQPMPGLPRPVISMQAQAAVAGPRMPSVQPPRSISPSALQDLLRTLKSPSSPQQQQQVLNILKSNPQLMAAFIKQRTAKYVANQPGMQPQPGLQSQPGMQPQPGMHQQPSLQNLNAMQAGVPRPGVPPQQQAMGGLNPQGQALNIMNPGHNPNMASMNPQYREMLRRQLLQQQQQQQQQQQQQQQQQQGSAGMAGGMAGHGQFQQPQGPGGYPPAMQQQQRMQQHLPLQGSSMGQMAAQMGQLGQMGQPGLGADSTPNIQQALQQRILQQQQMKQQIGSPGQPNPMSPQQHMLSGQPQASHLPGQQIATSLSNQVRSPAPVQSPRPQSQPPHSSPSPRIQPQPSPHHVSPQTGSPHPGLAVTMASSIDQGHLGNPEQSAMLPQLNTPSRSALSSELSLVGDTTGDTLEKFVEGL

| IC50 (CBP) | IC50 (MYC) | SMILES |
| --- | --- | --- |
| 47 nM | 2660 nM | CC(=O)N1CCc2c(cc(N3CCCc4cc(-c5cnn(C)c5)c(C(F)F)cc43)c(=O)n2C)C1 [Example 17] |
| 19 nM | 1020 nM | Cn1cc(-c2cc3c(cc2C(F)F)N(c2ccc4c(c2)n(C)c(=O)n4C)CCC3)cn1 [Example 18] |
| 42 nM | 1170 nM | Cn1cc(-c2cc3c(cc2C(F)F)N(c2cc(Cl)c4c(c2)n(C)c(=O)n4C)CCC3)cn1 [Example 33, 4-chloro-6-(7-(difluoromethyl)-6-(1-methyl-1H-pyrazol-4-yl)-3,4-dihydroquinolin-1(2H)-yl)-1,3-dimethyl-1H-benzo[d]imidazol-2(3H)-one] |
| > 4900 nM | > 10000 nM | Cn1cc(-c2cc3c(cc2C(F)F)N(c2ccc4c(c2F)n(C)c(=O)n4C)CCC3)cn1 [Example 34] |
| 23 nM | 428 nM | Cn1cc(-c2cc3c(cc2C(F)F)N(c2cc4c(cc2F)n(C)c(=O)n4C)CCC3)cn1 [Example 35] |
| 11 nM | 281 nM | CCc1cc(N2CCCc3cc(-c4cnn(C)c4)c(C(F)F)cc32)cc2c1n(C)c(=O)n2C [Example 37] |
| 5 nM | 136 nM | CN(C)c1cc(N2CCCc3cc(-c4cnn(C)c4)c(C(F)F)cc32)cc2c1n(C)c(=O)n2C [Example 41, 6-(7-(difluoromethyl)-6-(1-methyl-1H-pyrazol-4-yl)-3,4-dihydroquinolin-1(2H)-yl)-4-(dimethylamino)-1,3-dimethyl-1H-benzo[d]imidazol-2(3H)-one] |
| 6 nM | 115 nM | Cn1cc(-c2cc3c(cc2C(F)F)N(c2cc(N4CCCC4)c4c(c2)n(C)c(=O)n4C)CCC3)cn1 [Example 43] |
| 4 nM | 11 nM | Cn1cc(-c2cc3c(cc2C(F)F)N(c2cc(N4CCOCC4)c4c(c2)n(C)c(=O)n4C)CCC3)cn1 [Example 45] |
| 13 nM | 413 nM | Cc1cc2c(cc1N1CCCc3cc(-c4cnn(C)c4)c(C(F)F)cc31)n(C)c(=O)n2C [Example 46] |
| 39 nM | 1110 nM | CCc1cc2c(cc1N1CCCc3cc(-c4cnn(C)c4)c(C(F)F)cc31)n(C)c(=O)n2C [Example 47] |
| 30 nM |  | CN1CCN(c2ccc3c(c2)n(C)c(=O)n3C)c2cc(C(F)(F)F)c(-c3cnn(C)c3)cc21 [Example 95, 1,3-dimethyl-5-(4-methyl-6-(1-methyl-1H-pyrazol-4-yl)-7-(trifluoromethyl)-3,4-dihydroquinoxalin-1(2H)-yl)-1H-benzo[d]imidazol-2(3H)-one] |
| 16 nM |  | CNC(=O)c1cn(C)c2c(OC)cc(N3CCCc4cc(-c5cnn(C)c5)c(C(F)F)cc43)cc12 [Example 106, 5-(7-(difluoromethyl)-6-(1-methyl-1H-pyrazol-4-yl)-3,4-dihydroquinolin-1(2H)-yl)-7-methoxy-N,1-dimethyl-1H-indole-3-carboxamide] |
| 273 nM |  | CCc1cc(-c2ccccc2C)cc2c1OCCN(C(=O)NC)C2 [Example 109, 9-ethyl-N-methyl-7-(o-tolyl)-2,3-dihydrobenzo[f][1,4]oxazepine-4(5H)-carboxamide] |
| 201 nM |  | CNC(=O)N1CCOc2c(cc(-c3ccccc3C)cc2C(C)C)C1 [Example 110, 9-isopropyl-N-methyl-7-(o-tolyl)-2,3-dihydrobenzo[f][1,4]oxazepine-4(5H)-carboxamide] |
| 40 nM |  | CNC(=O)[C@H]1CCc2ccc(N3CCCc4cc(-c5cnn(C)c5)c(C(F)F)cc43)nc21 [Example 117, (S)-2-(7-(difluoromethyl)-6-(1-methyl-1H-pyrazol-4-yl)-3,4-dihydroquinolin-1(2H)-yl)-N-methyl-6,7-dihydro-5H-cyclopenta[b]pyridine-7-carboxamide] |
| 274 nM |  | CNC(=O)c1cccc2oc(-c3cccc4cc(-c5cnn(C)c5)ncc34)nc12 [Example 121, N-methyl-2-(3-(1-methyl-1H-pyrazol-4-yl)isoquinolin-8-yl)benzo[d]oxazole-4-carboxamide] |
| 14 nM |  | CNC(=O)c1cn(C)nc1C(=O)Nc1cccc2cc(-c3cnn(C)c3)ncc12 [Example 124, N^4,1-dimethyl-N^3-(3-(1-methyl-1H-pyrazol-4-yl)isoquinolin-8-yl)-1H-pyrazole-3,4-dicarboxamide] |

Second part, the molecule before the results:

| SMILES | IC50 (CBP) | IC50 (MYC) |
| --- | --- | --- |
| CNC(=O)N1CCNc2ccc(N3CCCc4cc(-c5cnn(C)c5)c(C(F)F)cc43)cc2C1 [Example 16, 7-[7-(difluoromethyl)-6-(1-methylpyrazol-4-yl)-3,4-dihydro-2H-quinolin-1-yl]-N-methyl-1,2,3,5-tetrahydro-1,4-benzodiazepine-4-carboxamide] | 8 nM | 173 nM |
| Cc1cc(N2CCCc3cc(-c4cnn(C)c4)c(C(F)F)cc32)cc2c1n(C)c(=O)n2C [Example 36, 6-(7-(difluoromethyl)-6-(1-methyl-1H-pyrazol-4-yl)-3,4-dihydroquinolin-1(2H)-yl)-1,3,4-trimethyl-1H-benzo[d]imidazol-2(3H)-one] | 14 nM | 1380 nM |
| Cn1cc(-c2cc3c(cc2C(F)F)N(c2cc(C4CCC4)c4c(c2)n(C)c(=O)n4C)CCC3)cn1 [Example 39] | 12 nM | 208 nM |
| Cc1c(N2CCCc3cc(-c4cnn(C)c4)c(C(F)F)cc32)ccc2c1n(C)c(=O)n2C [Example 40] | 72 nM | 1940 nM |
| C[C@H]1Nc2c(cccc2N2CCCc3cc(-c4cnn(C)c4)c(C(F)F)cc32)NC1=O [Example 81, (R)-5-(7-(difluoromethyl)-6-(1-methyl-1H-pyrazol-4-yl)-3,4-dihydroquinolin-1(2H)-yl)-3-methyl-3,4-dihydroquinoxalin-2(1H)-one] |  | 131 nM |
| CCCc1cc(N2CCCc3cc(-c4cnn(C)c4)c(C(F)F)cc32)cc2c1n(C)c(=O)n2C [Example 99, 6-(7-(difluoromethyl)-6-(1-methyl-1H-pyrazol-4-yl)-3,4-dihydroquinolin-1(2H)-yl)-1,3-dimethyl-4-propyl-1H-benzo[d]imidazol-2(3H)-one] | 19 nM |  |
| C#Cc1cc(N2CCCc3cc(-c4cnn(C)c4)c(C(F)F)cc32)cc2c1n(C)c(=O)n2C [Example 101, 6-(7-(difluoromethyl)-6-(1-methyl-1H-pyrazol-4-yl)-3,4-dihydroquinolin-1(2H)-yl)-4-ethynyl-1,3-dimethyl-1H-benzo[d]imidazol-2(3H)-one] | 12 nM |  |
| C#Cc1cc2c(cc1N1CCCc3cc(-c4cnn(C)c4)c(C(F)F)cc31)n(C)c(=O)n2C [Example 102, 5-(7-(difluoromethyl)-6-(1-methyl-1H-pyrazol-4-yl)-3,4-dihydroquinolin-1(2H)-yl)-6-ethynyl-1,3-dimethyl-1H-benzo[d]imidazol-2(3H)-one] | 21 nM |  |
| CNC(=O)c1ccc2c(c1)n(-c1cccc3cc(-c4cnn(C)c4)ncc13)c(=O)n2C [Example 103, N,1-dimethyl-3-(3-(1-methyl-1H-pyrazol-4-yl)isoquinolin-8-yl)-2-oxo-2,3-dihydro-1H-benzo[d]imidazole-5-carboxamide] | 222 nM |  |
| CNC(=O)N1CCOc2c(cc(-c3ccccc3C)cc2OC)C1 [Example 111, 9-methoxy-N-methyl-7-(o-tolyl)-2,3-dihydrobenzo[f][1,4]oxazepine-4(5H)-carboxamide] | 409 nM |  |
| CNC(=O)N1Cc2cc(N3CCCc4cc(-c5cnn(C)c5)c(C(F)F)cc43)ccc2OC(C)C1 (stereo not drawn) [Example 114, 7-(7-(difluoromethyl)-6-(1-methyl-1H-pyrazol-4-yl)-3,4-dihydroquinolin-1(2H)-yl)-N,2-dimethyl-2,3-dihydrobenzo[f][1,4]oxazepine-4(5H)-carboxamide] | 51 nM |  |
| C[C@H]1Oc2c(cccc2N2CCCc3cc(-c4cnn(C)c4)c(C(F)F)cc32)NC1=O [Example 115, (R)-8-(7-(difluoromethyl)-6-(1-methyl-1H-pyrazol-4-yl)-3,4-dihydroquinolin-1(2H)-yl)-2-methyl-2H-benzo[b][1,4]oxazin-3(4H)-one] | 77 nM |  |
| CN1Cc2c(cccc2N2CCCc3cc(-c4cnn(C)c4)c(C(F)F)cc32)NC1=O [Example 116, 5-(7-(difluoromethyl)-6-(1-methyl-1H-pyrazol-4-yl)-3,4-dihydroquinolin-1(2H)-yl)-3-methyl-3,4-dihydroquinazolin-2(1H)-one] | 26 nM |  |
| CNC(=O)[C@@H]1CCc2ccc(N3CCCc4cc(-c5cnn(C)c5)c(C(F)F)cc43)nc21 [Example 118, (R)-2-(7-(difluoromethyl)-6-(1-methyl-1H-pyrazol-4-yl)-3,4-dihydroquinolin-1(2H)-yl)-N-methyl-6,7-dihydro-5H-cyclopenta[b]pyridine-7-carboxamide] | 3240 nM |  |
| CNC(=O)c1ccc2cncc(N3CCCc4cc(-c5cnn(C)c5)c(C(F)F)cc43)c2c1 [Example 119, 4-(7-(difluoromethyl)-6-(1-methyl-1H-pyrazol-4-yl)-3,4-dihydroquinolin-1(2H)-yl)-N-methylisoquinoline-6-carboxamide] | 34 nM |  |
| CNC(=O)Nc1cccc(N2CCCc3cc(-c4cnn(C)c4)c(C(F)F)cc32)n1 [Example 122, 1-(6-(7-(difluoromethyl)-6-(1-methyl-1H-pyrazol-4-yl)-3,4-dihydroquinolin-1(2H)-yl)pyridin-2-yl)-3-methylurea] | 88 nM |  |
| CNC(=O)c1ccc2c(n1)c(N1CCCc3cc(-c4cnn(C)c4)c(C(F)F)cc31)nn2C1CCOCC1 [Example 125, 3-(7-(difluoromethyl)-6-(1-methyl-1H-pyrazol-4-yl)-3,4-dihydroquinolin-1(2H)-yl)-N-methyl-1-(tetrahydro-2H-pyran-4-yl)-1H-pyrazolo[4,3-b]pyridine-5-carboxamide] | 2 nM |  |
| CNC(=O)C1CCc2c(c(N3CCCc4cc(-c5cnn(C)c5)c(C(F)F)cc43)nn2C2CCOCC2)C1 (stereo not drawn) [Example 126, 3-(7-(difluoromethyl)-6-(1-methyl-1H-pyrazol-4-yl)-3,4-dihydroquinolin-1(2H)-yl)-N-methyl-1-(tetrahydro-2H-pyran-4-yl)-4,5,6,7-tetrahydro-1H-indazole-5-carboxamide] | 184 nM |  |
